Where a name gives a salt, the structure may show the parent alone.
Key:
[1] = Chronic corticosterone (CORT) model: body weight; type: in vivo, mice; conditions: male C57BL/6NTac; Flx 18 mg/kg/day in drinking water or RS-67,333 1.5 mg/kg/day in osmotic minipumps for 3 weeks prior to CORT
Procedure: This chronic CORT elevation dysregulates the hypothalamic-pituitary-adrenal axis (HPA) in a manner similar to that observed in clinical depression. The dose and duration of CORT treatment was selected based on previous studies. CORT (35 μg/ml, equivalent to about 5 mg/kg/day) dissolved in 0.45% hydroxypropyl-o-cyclodextrin (0-CD) or vehicle (VEH) (0.45% j-CD) was available ad libitum in the drinking water in opaque bottles to protect it from light. VEH- and CORT-treated water was changed every 3 days to prevent possible degradation. Contextual Fear Conditioning (CFC): A 3-shock CFC procedure was administered as previously published. Briefly, mice were placed into context A and administered 3 2-s shocks (0.75 mA) at 180 s, 240 s or 300 s following placement into context A. Mice were removed from the context 15 s following the termination of shock (at 317 s). For context retrieval, mice were placed back into context A for 300 s. Electrophysiology: Electrophysiology was conducted as previously described. Statistical Analysis: Results from data analyses are expressed as means±SEM. Alpha was set to 0.05 for all analyses. Data were analyzed using GraphPad Prism v7.0 or v8.0. For all experiments, unless otherwise noted, one- or two-way ANOVAs with repeated-measures were applied to the data as appropriate. […] Videos were scored using ANY-maze behavior tracking software (Stoelting, Wood Dale, Ill.). […]

C57BL/6NTac mice = assay: Elevated plus maze (EPM) in CORT model; type: in vivo; conditions: male C57BL/6NTac, Flx 18 mg/kg/day or RS-67,333 1.5 mg/kg/day for 3 weeks prior to CORT
Procedure: This chronic CORT elevation dysregulates the hypothalamic-pituitary-adrenal axis (HPA) in a manner similar to that observed in clinical depression. The dose and duration of CORT treatment was selected based on previous studies. CORT (35 μg/ml, equivalent to about 5 mg/kg/day) dissolved in 0.45% hydroxypropyl-o-cyclodextrin (0-CD) or vehicle (VEH) (0.45% j-CD) was available ad libitum in the drinking water in opaque bottles to protect it from light. VEH- and CORT-treated water was changed every 3 days to prevent possible degradation. Contextual Fear Conditioning (CFC): A 3-shock CFC procedure was administered as previously published. Briefly, mice were placed into context A and administered 3 2-s shocks (0.75 mA) at 180 s, 240 s or 300 s following placement into context A. Mice were removed from the context 15 s following the termination of shock (at 317 s). For context retrieval, mice were placed back into context A for 300 s. Electrophysiology: Electrophysiology was conducted as previously described. Statistical Analysis: Results from data analyses are expressed as means±SEM. Alpha was set to 0.05 for all analyses. Data were analyzed using GraphPad Prism v7.0 or v8.0. For all experiments, unless otherwise noted, one- or two-way ANOVAs with repeated-measures were applied to the data as appropriate. Significant main effects and/or interactions were followed by Fisher's PLSD post hoc analysis or unpaired t-tests. Drugs: All drugs were prepared in physiological saline and all injections were administered intraperitoneally (i.p.) in volumes of 0.1 cc per […] body weight unless otherwise noted. Fluoxetine hydrochloride (Flx): Flx (BioTrend Chemicals AG, BG197, Zurich, Germany) was administered in the drinking water (18 mg/kg/day) for 3 weeks before the start of CORT. […] (R,S)-ketamine (K): (R,S)-ketamine (Ketaset III, Ketamine HCl injection, Fort Dodge Animal Health, Fort Dodge, Iowa) was administered in a single dose at 30 mg/kg of body weight 1 week before the start of CFC. […] PF-04995274: PF-04995274 (Sigma, Catalog No. 1331782-27-4, St. Louis, Mo.) was administered a single dose at 3 or 10 mg/kg of body weight 1 week before the start of CFC. PF-04995274 was dissolved in saline using an ultrasonic homogenizer (BioLogics, Model 3000, Manassas, Va.). Osmotic minipump implantation: ALZET osmotic minipumps (Model 2004, […], 28 days) were implanted subcutaneously under isoflurane anesthesia as previously described [S2]. Osmotic minipumps were rotated under the skin two to three times per week. Behavioral Assays: All experiments were approved by the Institutional Animal Care and Use Committee (IACUC) at the New York Psychiatric Institute (NYSPI). […] Videos were scored using ANY-maze behavior tracking software (Stoelting, Wood Dale, Ill.). […]

BALB/cJRj mice [2] = assay: Elevated plus maze (EPM), acute anxiolytic-like effect; type: in vivo; conditions: acute systemic administration; fluoxetine 18 mg/kg i.p.
Procedure: (§1) RS67333 (1.5 mg/kg, i.p.), diazepam (1.5 mg/kg, i.p.), fluoxetine (18 mg/kg, i.p.) were injected 45 min before testing in the Elevated Plus Maze (EPM), the Novelty Suppressed Feeding (NSF) or the Open Field (OF) in three independent cohorts of male BALB/cJRj mice.
(§2) To ensure the selectivity of the anxiolytic-like effects of RS67333, in a new cohort of male BALB/cJRj mice, GR125487 (1.0 mg/kg, i.p.) dissolved in 0.9% NaCl solution, was injected 15 minutes before RS67333 administration (1.5 mg/kg, i.p.). EPM or NSF occurred 45 min after RS67333 administration (A-S1). Behavioral consequences of the co-administration of GR125487+RS67333 were compared to RS67333 alone, diazepam (1.5 mg/kg, i.p.) fluoxetine (18 mg/kg, i.p.) and vehicle groups (0.9% saline solution, i.p.).
(§3) For mPFC drug infusion, two bilateral cannulae (75 μm-diameter silica capillary tubing inserted in 27G stainless steel catheter) were implanted in the mPFC [stereotaxic coordinates in mm from bregma: A=+2.10, L=±0.50, V=−2.60, A, anterior; L, lateral; and V, ventral, according to (A-S10)] under anesthesia (chloral hydrate, 400 mg/kg, i.p.). […] Diazepam (1.5 mg/kg) was used as a positive control.
In a new cohort of male BALB/cJRj mice, p-CPA was administered twice daily (at 0900 and 1700 h) for 3 consecutive days. RS67333 ([…]) and diazepam ([…]) were then intra-mPFC administered 24 h after the final p-CPA administration and behavioral test (EPM) occurred 45 minutes after local infusion.
The EPM is a widely used behavioral assay for rodents and it has been validated to assess the anti-anxiety effects of pharmacological agents (A-S11). This test was performed as described by (A-S1). The maze is a plus-cross-shaped apparatus, with two open arms and two arms closed by walls linked by a central platform 50 cm above the floor. Mice were individually put in the center of the maze facing an open arm and were allowed to explore the maze during 5 min for the behavioral consequences of an acute systemic administration or mPFC infusion and during 6 min for the optogenetic experiments. The time spent in and the numbers of entries into the open arms were used as an anxiety index. All parameters were measured using a videotracker (EPM3C, Bioseb, Vitrolles, France).

BALB/cJRj mice [3] = assay: Novelty suppressed feeding (NSF), acute anxiolytic-like effect; type: in vivo; conditions: male BALB/cJRj; i.p. 45 min before testing; RS67333 1.5, diazepam 1.5, fluoxetine 18 mg/kg
Procedure: as §1, §2, §3
The NSF is a conflict test that elicits competing motivations: the drive to eat and the fear of venturing into the center of a brightly lit arena. The latency to begin eating is used as an index of anxiety/depression-like behavior, because classical anxiolytic drugs as well as chronic antidepressants decrease this measure. The NSF test was carried out during a 10 min period as previously described (A-S12). Briefly, the testing apparatus consisted of a plastic box (50×50×20 cm), the floor of which was covered with approximately 2 cm of wooden bedding. Twenty-four hours prior to behavioral testing, all food was removed from the home cage. At the time of testing, a single pellet of food (regular chow) was placed on a white paper platform positioned in the center of the box. Each animal was placed in a corner of the box, and a stopwatch was immediately started. The latency to eat (defined as the mouse sitting on its haunches and biting the pellet with the use of forepaws) was timed. Immediately afterwards, the animal was transferred to its home cage, and the amount of food consumed by the mouse in the subsequent 5 min was measured, serving as a control for change in appetite as a possible confounding factor.

## CNCCC(Oc1ccc(C(F)(F)F)cc1)c1ccccc1 (centres unmarked) [fluoxetine, Fluoxetine hydrochloride]
[1]
  CORT-induced increase in body weight: attenuated
C57BL/6NTac mice
  time spent in the open arms of the EPM vs VEH+Veh: did not alter
C57BL/6NTac mice; listed as Flx, hydrochloride
  entries into the open arms of the EPM vs CORT+Veh: significantly more entries
BALB/cJRj mice [2]
  anxiety-like behavior: did not affect anxiety-like behavior
BALB/cJRj mice [3]
  latency to feed (NSF) vs vehicle: anxiogenic-like effect
